# Experimental data taken from ChEMBL document CHEMBL1759968, “Synthesis and biological evaluation of unsaturated keto and exomethylene D-arabinopyranonucleoside analogs: novel 5-fluorouracil analogs that target thymidylate synthase” (Eur J Med Chem, 2011).
# pIC50: −log10 of the molar value. Activity calls are given as the source filed them. No cut-off for these calls is given here.
# Experiments:
# [1] = test system: Mammalian orthoreovirus 1; experiment: Antiviral activity against Reovirus 1 infected in Vero cells assessed as inhibition of virus-induced cytopathic effect; format: functional, organism-based
# Human respirovirus 3 = experiment: Antiviral activity against Human parainfluenza virus 3 infected in Vero cells assessed as inhibition of virus-induced cytopathic effect; format: functional, organism-based
# [2] = test system: Vesicular stomatitis virus; experiment: Antiviral activity against Vesicular stomatitis virus infected in HEL cells assessed as inhibition of virus-induced cytopathic effect; format: functional, organism-based
# Vaccinia virus = experiment: Antiviral activity against Vaccinia virus infected in HEL cells assessed as inhibition of virus-induced cytopathic effect; format: functional, organism-based; details: Orthopoxvirus vaccinia
# Human alphaherpesvirus 2 = experiment: Antiviral activity against Herpes simplex virus type-2 infected in HEL cells assessed as inhibition of virus-induced cytopathic effect; format: functional, organism-based
# Human alphaherpesvirus 1 = experiment: Antiviral activity against Herpes simplex virus type-1 infected in HEL cells assessed as inhibition of virus-induced cytopathic effect; format: functional, organism-based
# L1210 [3] = experiment: Cytostatic activity against mouse L1210 cells after 2 days by coulter counting analysis; format: functional, cell-based; details: L1210, 48 h
# FM3A = experiment: Cytostatic activity against mouse FM3A cells after 2 days by coulter counting analysis; format: functional, cell-based; details: 48 h
# CCRF-CEM = experiment: Cytostatic activity against human CEM cells after 3 days by coulter counting analysis; format: functional, cell-based; details: 72 h
# HeLa [4] = experiment: Cytostatic activity against human HeLa cells after 3 days by coulter counting analysis; format: functional, cell-based; details: 72 h
# Punta Toro virus = experiment: Antiviral activity against Punta Toro virus infected in Vero cells assessed as inhibition of virus-induced cytopathic effect; format: functional, organism-based
# [5] = test system: Vesicular stomatitis virus; experiment: Antiviral activity against Vesicular stomatitis virus infected in HeLa cells assessed as inhibition of virus-induced cytopathic effect; format: functional, organism-based
# [6] = test system: Respiratory syncytial virus; experiment: Antiviral activity against Respiratory syncytial virus infected in HeLa cells assessed as inhibition of virus-induced cytopathic effect; format: functional, organism-based
# Sindbis virus = experiment: Antiviral activity against Sindbis virus infected in Vero cells assessed as inhibition of virus-induced cytopathic effect; format: functional, organism-based
# Coxsackievirus B4 [7] = experiment: Antiviral activity against Human coxsackievirus B4 infected in Vero cells assessed as inhibition of virus-induced cytopathic effect; format: functional, organism-based
# Coxsackievirus B4 [8] = experiment: Antiviral activity against Human coxsackievirus B4 infected in HeLa cells assessed as inhibition of virus-induced cytopathic effect; format: functional, organism-based
# L1210 [9] = experiment: Cytostatic activity against mouse L1210 cells in presence of 20 uM thymidine; format: functional, cell-based
# L1210 [10] = experiment: Cytostatic activity against mouse L1210 cells in presence of 20 uM 2'-deoxyuridine; format: functional, cell-based
# L1210 [11] = experiment: Cytostatic activity against mouse L1210 cells in presence of 500 uM uridine; format: functional, cell-based
# L1210 [12] = experiment: Cytostatic activity against mouse L1210 cells in presence of 500 uM uracil; format: functional, cell-based
# HeLa [13] = experiment: Cytostatic activity against human HeLa cells in presence of 20 uM thymidine; format: functional, cell-based
# HeLa [14] = experiment: Cytostatic activity against human HeLa cells in presence of 20 uM 2'-deoxyuridine; format: functional, cell-based
# HeLa [15] = experiment: Cytostatic activity against human HeLa cells in presence of 500 uM uridine; format: functional, cell-based
# HeLa [16] = experiment: Cytostatic activity against human HeLa cells in presence of 500 uM uracil; format: functional, cell-based
# Thymidylate synthase [17] = molecular target: T1, Thymidylate synthase (Mus musculus, UniProt P07607); experiment: Inhibition of thymidylate synthase in mouse L1210 cells assessed as inhibition of tritium release from [5-3H]deoxyuridine after preincubation for 15 mins by liquid scintillation counting; format: cell-based
# T1 sequence (P07607 whole entry): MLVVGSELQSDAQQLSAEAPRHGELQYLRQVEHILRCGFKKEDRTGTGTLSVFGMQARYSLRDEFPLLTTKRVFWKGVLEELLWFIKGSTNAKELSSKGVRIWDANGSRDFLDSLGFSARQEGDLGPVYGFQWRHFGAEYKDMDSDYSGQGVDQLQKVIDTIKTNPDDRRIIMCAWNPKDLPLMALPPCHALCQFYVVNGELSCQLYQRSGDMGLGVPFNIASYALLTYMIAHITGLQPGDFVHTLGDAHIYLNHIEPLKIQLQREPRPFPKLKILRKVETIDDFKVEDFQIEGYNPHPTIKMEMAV
# Thymidylate synthase [18] = molecular target: T1, Thymidylate synthase; experiment: Inhibition of thymidylate synthase in mouse L1210 cells assessed as inhibition of tritium release from [5-3H]deoxyuridine after preincubation for 4 hrs by liquid scintillation counting; format: cell-based
# Thymidylate synthase [19] = molecular target: T1, Thymidylate synthase; experiment: Inhibition of thymidylate synthase in mouse L1210 cells assessed as inhibition of tritium release from [5-3H]deoxyuridine after preincubation for 24 hrs by liquid scintillation counting; format: cell-based
# Thymidylate synthase [20] = molecular target: T1, Thymidylate synthase; experiment: Inhibition of thymidylate synthase in mouse L1210 cells assessed as inhibition of tritium release from [5-3H]deoxycytidine after preincubation for 15 mins by liquid scintillation counting; format: cell-based
# Thymidylate synthase [21] = molecular target: T1, Thymidylate synthase; experiment: Inhibition of thymidylate synthase in mouse L1210 cells assessed as inhibition of tritium release from [5-3H]deoxycytidine after preincubation for 24 hrs by liquid scintillation counting; format: cell-based
SMILES,Activity [1],Activity (Human respirovirus 3),Activity [2],Activity (Vaccinia virus),Activity (Human alphaherpesvirus 2),Activity (Human alphaherpesvirus 1),pIC50 (L1210 [3]),pIC50 (FM3A),pIC50 (CCRF-CEM),pIC50 (HeLa [4]),Activity (Punta Toro virus),Activity [5],Activity [6],Activity (Sindbis virus),Activity (Coxsackievirus B4 [7]),Activity (Coxsackievirus B4 [8]),other results
C=C1C=CCO[C@@H]1n1cc(C)c(O)nc1=O,inactive,inactive,inactive,inactive,inactive,inactive,3.31,≤ 3.05,3.30,3.47,inactive,inactive,inactive,inactive,inactive,inactive,–
Cc1cn([C@H]2OCC=CC2=O)c(=O)nc1O,inactive,inactive,inactive,inactive,inactive,inactive,4.47,4.11,3.98,4.47,inactive,inactive,inactive,inactive,inactive,inactive,–
C=C1[C@H](O)[C@H](O)CO[C@@H]1n1cc(C)c(O)nc1=O,inactive,inactive,inactive,inactive,inactive,inactive,3.21,3.11,≤ 3.10,≤ 3.10,inactive,inactive,inactive,inactive,inactive,inactive,–
O=C(Nc1ccn([C@H]2OCC=CC2=O)c(=O)n1)c1ccccc1,inactive,inactive,inactive,inactive,inactive,inactive,4.55,4.21,4.34,4.14,inactive,inactive,inactive,inactive,inactive,inactive,–
C=C1C=CCO[C@@H]1n1ccc(O)nc1=O,inactive,inactive,inactive,inactive,inactive,inactive,3.26,< 3.00,3.35,3.12,inactive,inactive,inactive,inactive,inactive,inactive,–
O=c1[nH]c(=O)n([C@H]2C[C@H](O)[C@@H](CO)O2)cc1F [FLOXURIDINE],inactive,inactive,inactive,inactive,inactive,inactive,8.96,8.03,–,–,inactive,inactive,inactive,inactive,inactive,inactive,pIC50 (L1210 [9]): 4.00; pIC50 (L1210 [10]): 8.29; pIC50 (L1210 [11]): 8.64; pIC50 (L1210 [12]): 9.20; pIC50 (HeLa [13]): 5.07; pIC50 (HeLa [14]): 7.68; pIC50 (HeLa [15]): 7.21; pIC50 (HeLa [16]): 6.96; pIC50 (Thymidylate synthase [17]): 9.22; pIC50 (Thymidylate synthase [18]): 9.40; pIC50 (Thymidylate synthase [19]): 9.40; pIC50 (Thymidylate synthase [20]): 9.22; pIC50 (Thymidylate synthase [21]): 9.15
C=C1[C@H](O)[C@H](O)CO[C@@H]1n1ccc(O)nc1=O,inactive,inactive,inactive,inactive,inactive,inactive,< 3.10,< 3.10,< 3.10,≤ 3.10,inactive,inactive,inactive,inactive,inactive,inactive,–
O=c1[nH]c(=O)n([C@@H]2O[C@H](CO)[C@@H](O)[C@H]2O)cc1F [5-FLUOROURIDINE],inactive,inactive,inactive,inactive,inactive,inactive,7.85,7.85,–,–,inactive,inactive,inactive,inactive,inactive,inactive,pIC50 (L1210 [9]): 5.92; pIC50 (L1210 [10]): 7.59; pIC50 (L1210 [11]): 6.14; pIC50 (L1210 [12]): 8.12; pIC50 (HeLa [13]): 7.77; pIC50 (HeLa [14]): 7.66; pIC50 (HeLa [15]): 5.80; pIC50 (HeLa [16]): 7.80
O=C1C=CCO[C@@H]1n1ccc(O)nc1=O,inactive,inactive,inactive,inactive,inactive,inactive,4.04,3.92,4.09,4.38,inactive,inactive,inactive,inactive,inactive,inactive,–
C=C1C=CCO[C@@H]1n1ccc(NC(=O)c2ccccc2)nc1=O,inactive,inactive,inactive,inactive,inactive,inactive,3.43,3.42,3.36,3.53,inactive,inactive,inactive,inactive,inactive,inactive,–
C=C1C=CCO[C@@H]1n1ccc(N)nc1=O,inactive,inactive,inactive,inactive,inactive,inactive,2.86,≤ 2.74,2.81,3.00,inactive,inactive,inactive,inactive,inactive,inactive,–
O=C1C=CCO[C@@H]1n1cc(C(F)(F)F)c(O)nc1=O,inactive,inactive,inactive,inactive,inactive,inactive,4.64,4.34,4.41,4.47,inactive,inactive,inactive,inactive,inactive,inactive,–
